Patent publication US20060035884A1, “N-cyclic sulfonamido inhibitors of gamma secretase” (Elan Pharmaceuticals, Inc., priority 2004, published 2006)

Tested on: gamma secretase cleavage of NotchδE (constitutively active rat Notch1 construct ZEDN1)
Assay: Notch signaling reporter gene assay (4xwtCBF1 Luciferase co-transfected with NotchδE) for selective inhibitors of gamma secretase
Format: cell-based
Details: assay not given, it follows the Notch signaling assay section
Excerpt: Due to the importance of Notch signaling in cell fate determination, and tissue differentiation during both development and in the adult, inhibition of Notch signaling by gamma secretase inhibitors is postulated to be a limiting factor in their therapeutic utility. […] Lindsell, O. Bogler, D. Hayward and G. Weinmaster (1996). “Notch signaling inhibits muscle cell differentiation through a CBF1-independent pathway.” Development 122(12): 3765-73 in combination with the CBF1 repressible Luciferase reporter gene 4xwtCBF1Luc (Hsieh, J. J., T. Henkel, P. Salmon, E. Robey, M. G. Peterson and S. D. Hayward (1996). “Truncated mammalian Notch1 activates CBF1/RBPJk-repressed genes by a mechanism resembling that of Epstein-Barr virus EBNA2. ” Mol Cell Biol 16(3): 952-9).
When 4xwtCBF1 Luciferase is co-transfected with NotchδE (ZEDN1), gamma-secretase cleavage of NotchδE releases the Notch intracellular domain (NICD), which translocates to the nucleus and de-represses CBF1 mediated transcriptional repression, leading to transcription of the Luciferase reporter gene. Luciferase activity is easily assayed in cell extracts using commercially available kits. The activity of the reporter gene is directly correlated with gamma secretase cleavage of NotchδE, and as such, a reduction in Luciferase activity provides a convenient measure of inhibition of gamma secretase cleavage of NotchδE.

SMILES	IC50
O=S(=O)(c1ccc(Cl)cc1)N1CCCC2CCCCC21 (stereo not shown) [Compound 9, 1-(4-Chloro-benzenesulfonyl)-decahydro-quinoline]	1000 to 10000 nM
CC1CCCC(C)N1S(=O)(=O)c1ccc(Cl)cc1 (stereo not shown) [Compound 47, 1-(4-Chloro-benzenesulfonyl)-2,6-dimethyl-piperidine]	100 to 1000 nM
CC1CCc2cc(F)ccc2N1S(=O)(=O)c1ccc(Cl)cc1 (stereo not shown) [Compound 13, 1-(4-Chloro-benzenesulfonyl)-6-fluoro-2-methyl-1,2,3,4-tetrahydro-quinoline]	1000 to 10000 nM
O=C(NCc1ccccc1)C1Cc2ccccc2N1S(=O)(=O)c1ccc(Cl)cc1 (stereo not shown) [Compound 12, 1-(4-Chloro-benzenesulfonyl)-2,3-dihydro-1H-indole-2-carboxylic acid benzylamide]	1000 to 10000 nM
O=S(=O)(c1ccc(Cl)cc1)N1CCCCC1c1cccnc1 (stereo not shown) [Compound 1, 1-(4-Chloro-benzenesulfonyl)-1,2,3,4,5,6-hexahydro-[2,3′]bipyridinyl]	1000 to 10000 nM
C[C@@H]1CCC[C@H](C)N1S(=O)(=O)c1ccc(Cl)cc1 [Compound 45, (2R,6S)-1-[(4-chlorophenyl)sulfonyl]-2,6-dimethylpiperidine]	100 to 1000 nM
O=C(Nc1ccccc1)C1Cc2ccccc2N1S(=O)(=O)c1ccc(Cl)cc1 (stereo not shown) [Compound 2, 1-(4-Chloro-benzenesulfonyl)-2,3-dihydro-1H-indole-2-carboxylic acid phenylamide]	1000 to 10000 nM
CCC1CCCCN1S(=O)(=O)c1ccc(Cl)cc1 (stereo not shown) [Compound 46, 1-(4-Chloro-benzenesulfonyl)-2-ethyl-piperidine]	100 to 1000 nM
O=S(=O)(c1ccc(Cl)cc1)N1CCCCCC1 [Compound 43, 1-(4-Chloro-benzenesulfonyl)-azepane]	1000 to 10000 nM

Now from value to molecule:

IC50	SMILES
> 10000 nM	O=S(=O)(c1ccc(Cl)cc1)N1CCCN2CCCN=C21 [Compound 138, 1-(4-Chloro-benzenesulfonyl)-1,3,4,6,7,8-hexahydro-2H-pyrimido[1,2-a]pyrimidine]
1000 to 10000 nM	CC1C=CC(C)N1S(=O)(=O)c1ccc(Cl)cc1 (stereo not shown) [Compound 149, 1-(4-Chloro-benzenesulfonyl)-2,5-dimethyl-2,5-dihydro-1H-pyrrole]
> 10000 nM	O=S(=O)(c1ccc(Cl)cc1)N1CCC(Br)CC1 [Compound 56, 4-Bromo-1-(4-chloro-benzenesulfonyl)-piperidine]
> 10000 nM	CC1(c2ccccc2)CCCN(S(=O)(=O)c2ccc(Cl)cc2)C1 (stereo not shown) [Compound 74, 1-(4-Chloro-benzenesulfonyl)-3-methyl-3-phenyl-piperidine]
1000 to 10000 nM	CC1CCC(C)N1S(=O)(=O)c1ccc(Cl)cc1 (stereo not shown) [Compound 124, 1-(4-Chloro-benzenesulfonyl)-2,5-dimethyl-pyrrolidine]
1000 to 10000 nM	CC1CCCN(S(=O)(=O)c2ccc(Cl)cc2)C1 (stereo not shown) [Compound 54, 1-(4-Chloro-benzenesulfonyl)-3-methyl-piperidine]
> 10000 nM	CCCCNC(=O)[C@H]1CSC(c2ccc(OC)c(OC)c2)N1S(=O)(=O)c1ccc(Cl)cc1 (stereo partly drawn) [Compound 139, (4S)-N-butyl-3-[(4-chlorophenyl)sulfonyl]-2-(3,4-dimethoxyphenyl)-1,3-thiazolidine-4-carboxamide]
1000 to 10000 nM	CC1CCCCN1S(=O)(=O)c1ccc(Cl)cc1 (stereo not shown) [Compound 48, 1-(4-Chloro-benzenesulfonyl)-2-methyl-piperidine]
1000 to 10000 nM	CC1CC(C)CN(S(=O)(=O)c2ccc(Cl)cc2)C1 (stereo not shown) [Compound 51, 1-(4-Chloro-benzenesulfonyl)-3,5-dimethyl-piperidine]
> 10000 nM	CCOC(=O)C1CCCN(S(=O)(=O)c2ccc(Cl)cc2)C1 (stereo not shown) [Compound 65, 1-(4-Chloro-benzenesulfonyl)-piperidine-3-carboxylic acid ethyl ester]
